Experimental data published in ChEMBL document CHEMBL3885881, “DrugMatrix”.

Organism: Rattus norvegicus
Experiment: DrugMatrix - Regimen: Daily Repeat
Assay type: toxicity, organism-based, Sprague-Dawley
Set-up: regimen Daily Repeat, gender Male, age 6-8 weeks
Conditions: in vivo, po, route oral GAVAGE, […]; for ABSOLUTE BASOPHIL / BASOPHIL / NUCLEATED RED BLOOD CELLS / ABSOLUTE EOSINOPHIL / ABSOLUTE LYMPHOCYTE / ABSOLUTE MONOCYTE / ABSOLUTE SEGMENTED NEUTROPHIL / EOSINOPHIL / ERYTHROCYTE COUNT / HEMATOCRIT / HEMOGLOBIN / LEUKOCYTE COUNT / LYMPHOCYTE / MEAN CORPUSCULAR HEMOGLOBIN / MEAN CORPUSCULAR HEMOGLOBIN CONCENTRATION / MEAN CORPUSCULAR VOLUME / MONOCYTE / NEUTROPHIL / PLATELET COUNT: tissue Blood; for TOTAL BILIRUBIN / ALANINE AMINOTRANSFERASE / ALBUMIN / ALKALINE PHOSPHATASE / ASPARTATE AMINOTRANSFERASE / BLOOD UREA NITROGEN / CARBON DIOXIDE / CHLORIDE / CHOLESTEROL / CREATINE PHOSPHOKINASE / CREATININE / GLUCOSE / LACTATE DEHYDROGENASE / LIPASE / PHOSPHORUS / POTASSIUM / SODIUM / TOTAL PROTEIN / URIC ACID: tissue Plasma
[1] = 0 mg/kg, 72 h, dose level Control, time 3 day
[2] = 0 mg/kg, 120 h, dose level Control, time 5 day
[3] = 10 mg/kg, 72 h, dose level Low, time 3 day
[4] = 10 mg/kg, 120 h, dose level Low, time 5 day

COc1ccc2cc([C@H](C)C(=O)O)ccc2c1 [NAPROXEN]
ABSOLUTE BASOPHIL [1]: 0 CELLS/uL | BASOPHIL [1]: 0% | NUCLEATED RED BLOOD CELLS [1]: 0 /100WBC | TOTAL BILIRUBIN [1]: 0.2 mg/dL | ABSOLUTE BASOPHIL [2]: 0 CELLS/uL | BASOPHIL [2]: 0% | ABSOLUTE BASOPHIL [3]: 0 CELLS/uL | ABSOLUTE EOSINOPHIL [3]: 0 CELLS/uL | ABSOLUTE LYMPHOCYTE [3]: 16953.33 CELLS/uL | ABSOLUTE MONOCYTE [3]: 484 CELLS/uL | ABSOLUTE SEGMENTED NEUTROPHIL [3]: 1296 CELLS/uL | BASOPHIL [3]: 0% | EOSINOPHIL [3]: 0% | ERYTHROCYTE COUNT [3]: 5.66 x10E6/uL | HEMATOCRIT [3]: 36.03% | HEMOGLOBIN [3]: 14.13 G/DL | LEUKOCYTE COUNT [3]: 18.73 x10E3/uL | LYMPHOCYTE [3]: 90.67% | MEAN CORPUSCULAR HEMOGLOBIN [3]: 25.03 pg | MEAN CORPUSCULAR HEMOGLOBIN CONCENTRATION [3]: 39.23 G/DL | MEAN CORPUSCULAR VOLUME [3]: 63.73 fL | MONOCYTE [3]: 2.67% | NEUTROPHIL [3]: 6.67% | NUCLEATED RED BLOOD CELLS [3]: 0.33 /100WBC | PLATELET COUNT [3]: 1140 x10E3/uL | ALANINE AMINOTRANSFERASE [3]: 66 u/L | ALBUMIN [3]: 3.9 G/DL | ALKALINE PHOSPHATASE [3]: 469.67 u/L | ASPARTATE AMINOTRANSFERASE [3]: 84 u/L | BLOOD UREA NITROGEN [3]: 9.67 mg/dL | CARBON DIOXIDE [3]: 20.33 mmol/L | CHLORIDE [3]: 103.67 MEQ/L | CHOLESTEROL [3]: 54.33 mg/dL | CREATINE PHOSPHOKINASE [3]: 295.33 u/L | CREATININE [3]: 0.19 mg/dL | GLUCOSE [3]: 187.67 mg/dL | LACTATE DEHYDROGENASE [3]: 313.33 u/L | LIPASE [3]: 9.33 u/L | PHOSPHORUS [3]: 12.03 mg/dL | POTASSIUM [3]: 6.09 MEQ/L | SODIUM [3]: 143.67 MEQ/L | TOTAL BILIRUBIN [3]: 0.1 mg/dL | TOTAL PROTEIN [3]: 5.87 G/DL | URIC ACID [3]: 2.03 mg/dL | ABSOLUTE BASOPHIL [4]: 0 CELLS/uL | ABSOLUTE EOSINOPHIL [4]: 321 CELLS/uL | ABSOLUTE LYMPHOCYTE [4]: 16605.33 CELLS/uL | ABSOLUTE MONOCYTE [4]: 680 CELLS/uL | ABSOLUTE SEGMENTED NEUTROPHIL [4]: 1493.67 CELLS/uL | BASOPHIL [4]: 0% | EOSINOPHIL [4]: 2% | ERYTHROCYTE COUNT [4]: 5.33 x10E6/uL | HEMATOCRIT [4]: 34.4% | HEMOGLOBIN [4]: 13.33 G/DL | LEUKOCYTE COUNT [4]: 19.1 x10E3/uL | LYMPHOCYTE [4]: 86.33% | MEAN CORPUSCULAR HEMOGLOBIN [4]: 25.23 pg | MEAN CORPUSCULAR HEMOGLOBIN CONCENTRATION [4]: 38.8 G/DL | MEAN CORPUSCULAR VOLUME [4]: 65 fL | MONOCYTE [4]: 3.67% | NEUTROPHIL [4]: 8% | NUCLEATED RED BLOOD CELLS [4]: 0 /100WBC | PLATELET COUNT [4]: 1322.33 x10E3/uL | ALANINE AMINOTRANSFERASE [4]: 109.67 u/L | ALBUMIN [4]: 3.7 G/DL | ALKALINE PHOSPHATASE [4]: 463.67 u/L | ASPARTATE AMINOTRANSFERASE [4]: 145.33 u/L | BLOOD UREA NITROGEN [4]: 8.33 mg/dL | CARBON DIOXIDE [4]: 19.33 mmol/L | CHLORIDE [4]: 104 MEQ/L | CHOLESTEROL [4]: 40.33 mg/dL | CREATINE PHOSPHOKINASE [4]: 1655.33 u/L | CREATININE [4]: 0.18 mg/dL | GLUCOSE [4]: 252 mg/dL | LACTATE DEHYDROGENASE [4]: 400 u/L | LIPASE [4]: 9 u/L | PHOSPHORUS [4]: 14.07 mg/dL | POTASSIUM [4]: 6.26 MEQ/L | SODIUM [4]: 143.27 MEQ/L | TOTAL BILIRUBIN [4]: 0.17 mg/dL | TOTAL PROTEIN [4]: 5.4 G/DL | URIC ACID [4]: 3.1 mg/dL
